Paper PMC10991534, “The redox-sensitive R-loop of the carbon control protein SbtB contributes to the regulation of the cyanobacterial CCM” (Scientific Reports, 2024)

How the values were obtained:
Assay in all cases: ITC, one set of sites model
SbtB-Δ104 = target: T1, SbtB-Δ104 (Synechocystis sp. PCC 6803, UniProt P73954); assay type: binding
T1 construct: gene slr1513; C-terminal R-loop truncated, StrepII-tagged, recombinant, trimer

SbtB [1] = target: T2, SbtB (Synechocystis sp. PCC 6803, UniProt P73954); details: WT oxidized R-loop; re-calculated here from the group's earlier ITC data (ref 11) with single binding model; cited from earlier work
T2 construct: gene slr1513; R-loop Cys105-Cys110
T2 sequence (P73954 whole entry): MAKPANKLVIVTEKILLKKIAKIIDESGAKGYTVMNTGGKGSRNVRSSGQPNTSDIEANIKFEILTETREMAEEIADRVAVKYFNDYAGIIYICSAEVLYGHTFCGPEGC

SbtB [2] = target: T3, SbtB (Synechocystis sp. PCC 6803, UniProt P73954, C105S); assay type: binding
T3 construct: gene slr1513; R-loop Cys105-Cys110
T3 sequence (P73954 whole entry C105S): as the sequence (P73954 whole entry) above, with C105S counted along it

SbtB [3] = target: T4, SbtB (Synechocystis sp. PCC 6803, UniProt P73954, C110S); assay type: binding
T4 construct: gene slr1513; R-loop Cys105-Cys110
T4 sequence (P73954 whole entry C110S): as the sequence (P73954 whole entry) above, with C110S counted along it

SbtB-Δ109 = target: T5, SbtB-Δ109 (Synechocystis sp. PCC 6803, UniProt P73954); assay type: binding
T5 construct: gene slr1513; last residue Cys110 deleted, StrepII-tagged, recombinant, trimer
T5 sequence (P73954 1-109, stated change not applied): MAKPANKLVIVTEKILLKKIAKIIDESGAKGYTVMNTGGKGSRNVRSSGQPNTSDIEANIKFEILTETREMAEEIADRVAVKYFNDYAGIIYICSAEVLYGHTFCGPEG

SbtB [4] = target: T6, SbtB (Synechocystis sp. PCC 6803, UniProt P73954, C105A/C110A); assay type: binding
T6 construct: gene slr1513; R-loop Cys105-Cys110
T6 sequence (P73954 whole entry C105A/C110A): as the sequence (P73954 whole entry) above, with C105A, C110A counted along it

SbtB [5] = target: T7, SbtB (Synechocystis sp. PCC 6803, UniProt P73954, C105S/C110S); assay type: binding
T7 construct: gene slr1513; R-loop Cys105-Cys110
T7 sequence (P73954 whole entry C105S/C110S): as the sequence (P73954 whole entry) above, with C105S, C110S counted along it

T1 sequence (P73954 1-104, stated change not applied): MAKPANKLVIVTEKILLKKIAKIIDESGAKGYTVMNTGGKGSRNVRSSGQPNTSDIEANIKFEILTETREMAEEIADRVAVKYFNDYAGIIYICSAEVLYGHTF

Nc1ncnc2c1ncn2[C@@H]1O[C@H](COP(=O)(O)OP(=O)(O)O)[C@@H](O)[C@H]1O [ADP]
Kd (SbtB-Δ104): 79.2 ± 55.1 µM
Kd (SbtB [1]): 55.8 ± 7.7 µM

Nc1ncnc2c1ncn2[C@@H]1O[C@H](COP(=O)(O)OP(=O)(O)OP(=O)(O)O)[C@@H](O)[C@H]1O [ATP]
Kd (SbtB [2]): 40.5 ± 75.9 µM
Kd (SbtB [3]): 60.1 ± 6.7 µM
Kd (SbtB-Δ104): 35 ± 7.1 µM
Kd (SbtB-Δ109): 32.5 ± 17.9 µM
Kd (SbtB [4]): 29.8 ± 14.1 µM
Kd (SbtB [1]): 62.5 ± 16.6 µM
Kd (SbtB [5]): 47.6 ± 21.3 µM

Nc1ncnc2c1ncn2[C@@H]1O[C@H](COP(=O)(O)O)[C@@H](O)[C@H]1O [AMP]
Kd (SbtB-Δ104): 78.2 ± 6 µM
Kd (SbtB [1]): 87.4 ± 3.7 µM
